Data as given in patent US20220119446A1, “BIOMARKERS AND TREATMENT OF NEURONAL INJURY AND NEURODEGENERATION” (Board of Supervisons of Louisiana State University and …, priority 2018, published 2022).
Entries after “also recorded” stand apart in the source; their conditions may differ. * marks the point of attachment. Boc = CC(C)(C)OC(=O)*

What was measured:
Wnt5a [1] = assay: Transient MCAo: Wnt5a protein in plasma; type: in vivo; conditions: rat MCAo, days 1, 3 and 7 post-surgery
Method: In various exemplary embodiments, docosahexaenoic acid (DHA; 5 mg/kg, Cayman, Ann Arbor, Mich., USA), Box5 (1 mg/kg, Millipore-Sigma, Burlington, Mass.) or vehicle (0.9% saline) is administered intravenously into the femoral vein at a constant rate over 3 min using an infusion pump at 3 h after onset of MCAo. In embodiments, for western-blot study, rats are sacrificed on days 1, 3, or 7; for real-time PCR study, rats are sacrificed on days 1, 2, or 3.
A, Timeline of MCAo. DHA, Box5 or saline were administered at 1 h after 2 h of MCAo and rats were sacrificed on days 1, 2, 3 or 7. B, Effect of DHA on neurological recovery. Total score (normal score=0, maximal deficit=12), tactile placing (dorsal, lateral, proprioceptive reactions; normal score=0, maximal deficit=2) after MCAo. DHA or saline was administered at 1 h after 2 h of MCAo and rats sampled on days 1, 2, 3 or 7. […] C, Total neurological score at days 1, 3 and 7; D, MRI quantification at day 7 of the lesion volume depicting total, core and penumbra and; E, representative coronal sections showing T2 weighted image (T2WI), the defined core and penumbra region (red and blue, respectively) in the second column; and a 3D reconstruction of the lesion. […] J, Quantification of Wnt5a and NF-κB linked gene expression in MCAo. […] The mRNA were measured using SYBR green RT-PCR. […]

Wnt5a [2] = assay: Microarray of Wnt5a expression in 15-LOX-1 deficient ARPE-19 cells under uncompensated oxidative stress (UOS); type: cell-based, human; conditions: UOS=600 μM H2O2 plus 10 ng/ml TNFα, 6 hours, UOS alone gives 2-fold increase
Method: Primary human RPE cultures can be from human eyecups, provided by the National Disease Research Interchange (NDRI), as described previously (Calandria et al. 2012). hRPE cells can be grown and maintained in high-glucose MEM (Life Technologies Corporation, Carlsbad, Calif.) supplemented with 10% FBS (Tissue Culture Biologicals, Inc., Long Beach, Calif.), 5% NCS, non-essential amino acids, Penicillin-Streptomycin (100 U/mL), human fibroblast growth factor (FGF) 10 ng/mL and incubated at 37° C. with a constant supply of 5% CO2. ARPE-19 cells, can be plated and grown in DMEM/F-12 containing 10% FBS and 1× penicillin/streptomycin at 37° C., 5% CO2, 99% relative humidity for 24 h. Silenced 15-LOX-1 cells, described in detail elsewhere (Calandria et al. 2009), are derived from ARPE-19 by stably silencing 15-LOX-1. 15-LOX-1 deficient cells can be maintained in the same medium as ARPE-19 with the addition of 500 μg/mL Geneticin (Life Technologies Corporation, Carlsbad, Calif.). […] Transfection efficiency can be assessed using an expression plasmid-carrying GFP ORF or by including a negative control siRNA conjugated with Alexa Fluor® 488 or 546 (QIAGEN, Hilden, Germany). siRNA efficiency can be assessed using SYBR green-based real-time PCR using the primers of Table 2 and the percentage of silencing achieved (FIG. 7). […]

Row | Compound | plasma (blood) Wnt5a protein (Wnt5a [1]) | Wnt5a expression (Wnt5a [2])
1 | t-Boc-NH-Met-Asp-Gly-Cys-Glu-Leu-CO2H (Boc-MDGCEL-OH) [Box5] | failed to reduce the plasma Wnt5a content; also recorded: did not affect the levels of Wnt5a; also recorded: did not affect Wnt5a abundance | –
2 | CC/C=C\C[C@H](O)\C=C/C=C/C=C/[C@H](O)C/C=C\C/C=C\CCC(=O)O [NPD1, 10R,17S-dihydroxy-docosa-4Z,7Z,11E,13E,15Z,19Z-hexaenoic acid] | – | brought down to below controls; also recorded: reversed
